According to paper PMC6690746 (European journal of medicinal chemistry, 2018):
Entries after “also recorded” stand apart in the source; their conditions may differ.

Tests used:
Assay type in all cases: cell-based, human
T98G cells = assay: Antitumor activity; conditions: for EC50: Homo sapiens, read-out: Antitumor activity EC50; for Maximal killing activity: concentration not stated at this place; for Fold increase in EC50 value compared with 8: versus compound 8 (87 nM)
[1] = test system: NCI-60 cancer cell line panel; assay: NCI 60 cell screen; conditions: for Loss in cell number: NCI-60, the 4 cell lines killed
PD-GBM cells = assay: Cell-killing activity in PD-GBM cells, all subtypes together; conditions: applied at 1–10 μM
HepG2 (liver) = assay: Cell-killing activity; conditions: HepG2, at 1–10 μM
[2] = NCI-60, the 11 cell lines with halted proliferation
[3] = NCI-60, the 41 cell lines with reduced proliferation rate

COc1ccc(/C=C\c2cc(OC)c(OC)c(OC)c2)cc1O [Compound 1, combretastatin A-4, reference compound]
Maximal killing (T98G cells; 72 h, at 10 nM): 30.4% ± 2.1 | EC50 (T98G cells; 72 h): 0.6 nM

COC(=O)Nc1nc2cc(C(=O)c3cccs3)ccc2[nH]1 [Compound 3, nocodazole, reference compound]
Maximal killing (% ± SEM) (T98G cells; 72 h, at 10 μM): 45.6% ± 1.7 | EC50 (T98G cells; 72 h): 29 nM

CCn1c2ccccc2c2cc(C(=O)c3ccc(C)c4ccccc34)ccc21 [Compound 8, 9-ethyl-3-[(4-methylnaphthalen-1-yl)carbonyl]-9H-carbazole]
Maximal killing activity (T98G cells; 72 h): 35–45% | Loss in cell number [1]: 13% to 60% | Percent growth inhibition [1, 2]: 9% to −1% | Percent growth inhibition [1, 3]: 67% to 10%

CCn1c2ccccc2c2cc(C(=O)N3CCN(C)CC3)ccc21 [Compound 9, 9-ethyl-3-(4-methylpiperazine-1-carbonyl)-9H-carbazole]
Effect on T98G cells in words (T98G cells; 72 h): only weakly active at concentrations above five micromolar or essentially inactive; also recorded: did not significantly affect T98G cell viability

CCn1c2ccccc2c2cc(C(=O)Cc3ccccc3)ccc21 [Compound 13, 1-(9-ethyl-9H-carbazol-3-yl)-2-phenylethan-1-one]
Effect on T98G cells in words (T98G cells; 72 h): only weakly active at concentrations above five micromolar or essentially inactive; also recorded: did not significantly affect T98G cell viability

CCn1c2ccccc2c2cc(C(=O)c3cccc4ccccc34)ccc21 [Compound 14, 9-ethyl-3-(naphthalene-1-carbonyl)-9H-carbazole]
Fold increase in EC50 value compared with 8 (T98G cells): 20 fold

CCCn1c2ccccc2c2cc(C(=O)c3ccc(C)c4ccccc34)ccc21 [Compound 16, 9-propyl-3-[(4-methylnaphthalen-1-yl)carbonyl]-9H-carbazole]
Effect on T98G cells in words (T98G cells; 72 h): only weakly active at concentrations above five micromolar or essentially inactive; also recorded: did not significantly affect T98G cell viability | Fold increase in EC50 value compared with 8 (T98G cells): 115 fold

Cc1ccc(C(=O)c2ccc3c(c2)c2ccccc2n3CC(F)(F)F)c2ccccc12 [Compound 18, 3-(4-methylnaphthalene-1-carbonyl)-9-(2,2,2-trifluoroethyl)-9H-carbazole]
Effect on T98G cells in words (T98G cells; 72 h): only weakly active at concentrations above five micromolar or essentially inactive | Maximal killing activity (T98G cells; 72 h): 35–45% | Fold increase in EC50 value compared with 8 (T98G cells): 64 fold

CCn1c2ccccc2c2cc(C(=O)c3cccc4ncccc34)ccc21 [Compound 20, 9-ethyl-3-(quinoline-5-carbonyl)-9H-carbazole]
Loss in cell number [1]: 13% to 60% | Percent growth inhibition [1, 2]: 9% to −1% | Percent growth inhibition [1, 3]: 67% to 10%

CCn1c2ccccc2c2cc(C(=O)c3cccc4c3CCCN4)ccc21 [Compound 23]
Effect on T98G cells in words (T98G cells; 72 h): only weakly active at concentrations above five micromolar or essentially inactive; also recorded: did not significantly affect T98G cell viability | Effect on NCI-60 cell lines in words ([1]; NCI-60 panel): did not significantly affect the viability and proliferation of any of the cell lines | Growth inhibition: Delta ([1]; NCI-60 panel): 10.42 | Growth inhibition: Mean ([1]; NCI-60 panel, over all cell lines): 102.05

CCn1c2ccccc2c2cc(C(=O)c3cccc4c3NCCC4)ccc21 [Compound 24, 9-ethyl-3-(1,2,3,4-tetrahydroquinoline-8-carbonyl)-9H-carbazole]
Effect on T98G cells in words (T98G cells; 72 h): only weakly active at concentrations above five micromolar or essentially inactive; also recorded: did not significantly affect T98G cell viability

CCn1c2ccccc2c2cc(C(=O)N3CCCc4ccccc43)ccc21 [Compound 25, 9-ethyl-3-[(1,2,3,4-tetrahydroquinolin-1-yl)carbonyl]-9H-carbazole]
PD-GBM cells killed (PD-GBM cells): 95–100% | Activity in HepG2 cells in words (HepG2 (liver)): inactive

CCn1c2ccccc2c2cc(C(=S)c3ccc(C)c4ccccc34)ccc21 [Compound 26, 9-ethyl-3-(4-methylnaphthalene-1-carbothioyl)-9H-carbazole]
Effect on T98G cells in words (T98G cells; 72 h): only weakly active at concentrations above five micromolar or essentially inactive; also recorded: did not significantly affect T98G cell viability

CCn1c2ccccc2c2cc(C(O)c3ccc(C)c4ccccc34)ccc21 (stereo not drawn) [Compound 27, (9-ethyl-9H-carbazol-3-yl)(4-methylnaphthalen-1-yl)methanol]
Fold increase in EC50 value compared with 8 (T98G cells): 6 fold | Loss in cell number [1]: 13% to 60% | Percent growth inhibition [1, 2]: 9% to −1% | Percent growth inhibition [1, 3]: 67% to 10%

CCn1c2c(c3ccccc31)CN(C(=O)c1ccc(C)c3ccccc13)CC2 [Compound 35, 5-ethyl-2-[(4-methylnaphthalen-1-yl)carbonyl]-1H,2H,3H,4H,5H-pyrido[4,3-b]indole]
Maximal killing activity (T98G cells; 72 h): 35–45%

CC[C@]1(O)C[C@@H]2CN(CCc3c([nH]c4ccccc34)[C@@](C(=O)OC)(c3cc4c(cc3OC)N(C)[C@H]3[C@@](O)(C(=O)OC)[C@H](OC(C)=O)[C@]5(CC)C=CCN6CC[C@]43[C@@H]65)C2)C1 [vinblastine, reference compound]
Maximal killing activity (T98G cells; 72 h): 36.0% ± 2.3
